Data taken from patent US20240336654A1, “ANTIMICROBIAL PEPTIDOMIMETICS” (SPEXIS AG, priority 2021, published 2024).
Read-outs that look alike come from different tables or passages of the source. Where a SMILES comes first, the peptide text is derived from it. Bridges are numbered along the chain shown (N, C = ends). Where no end group is shown, it is not given here. [ ]: non-standard residue; d: D form. The star is where a group is joined. Val(Nα-amidino) = CC(C)[C@H](NC(=N)N)C(=O)*; Gly(cPent) = N[C@H](C(=O)O)C1CCCC1; Hyp = O=C(O)[C@@H]1C[C@@H](O)CN1; Pen = CC(C)(S)[C@H](N)C(=O)O; dDab = NCC[C@@H](N)C(=O)O; Dab = NCC[C@H](N)C(=O)O

Experiments:
Assay type in all cases: cell-based
[1] = tested on: Escherichia coli MCR-1 Af 45
Procedure, shortened: (§1)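 MICs were determined by CLSI broth microdilution in cation-adjusted Mueller-Hinton II broth with about 5×10^5 CFU/mL inoculum. Peptides were tested in two-fold serial dilutions with 0.002% polysorbate 80 final. MIC in μg/mL is the lowest concentration with no visible growth after 18-20 h at 35 °C.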

[2] = tested on: Escherichia coli ATCC 25922
Procedure, shortened: as §1

[3] = tested on: Klebsiella pneumoniae SSI3010
Procedure, shortened: as §1

[4] = tested on: human red blood cells (hRBC)
Procedure, shortened: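 Percent hemolysis derived from OD540 of supernatants relative to full lysis by 2.5% Triton X-100 (PBS baseline). Washed fresh human erythrocytes (20% v/v) were exposed to 200 μg/mL peptide for 1 h at 37 °C with shaking.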

[5] = red cells of human, 1 h, 200 μg/mL
[6] = Mueller-Hinton broth II, no visible growth after 18-20 hours at 35° C.

| Molecule | Escherichia coli MCR-1 Af45 MIC ([1]; MCR-1 Af 45) [mg/L] | Escherichia coli ATCC 25922 MIC ([2]; ATCC 25922) [mg/L] | Klebsiella pneumoniae SSI3010 MIC ([3]; SSI3010) [mg/L] | Hemolysis at 0.2 g/L [4, 5] [%] | Escherichia coli MCR-1 Af45 MIC [1, 6] [mg/L] | Escherichia coli ATCC 25922 MIC [2, 6] [mg/L] | Klebsiella pneumoniae SSI3010 MIC [3, 6] [mg/L] | Hemolysis at 0.2 g/L [4] [%] |
| --- | --- | --- | --- | --- | --- | --- | --- | --- |
| CC(C)[C@H](NC(=N)N)C(=O)N1C[C@H](O)C[C@H]1C(=O)N[C@H](C(=O)N[C@@H]1C(=O)N[C@@H](Cc2ccc(O)cc2)C(=O)N[C@@H]([C@@H](C)O)C(=O)N[C@@H](CC(N)=O)C(=O)N[C@@H](CCCNC(=N)N)C(=O)N[C@@H](CCN)C(=O)N[C@@H]([C@@H](C)O)C(=O)N[C@H](CCN)C(=O)N[C@@H](CO)C(=O)N[C@@H](CCN)C(=O)N[C@@H](CCN)C(=O)N[C@H](C(=O)N[C@@H](Cc2ccc(O)cc2)C(=O)O)CSSC1(C)C)C1CCCC1 [Example 134, Gua-Val-Hyp-Cpg-Pen-Tyr-Thr-Asn-Arg-Dab-Thr-^DDab-Ser-Dab-Dab-Cys-Tyr] ({Val(Nα-amidino)}-[Hyp][Gly(cPent)][Pen]YTNR[Dab]T[dDab]S[Dab][Dab]CY-OH; disulfide 3-14) | 0.125 | 0.125 | 0.25 | <1 | – | – | – | – |
| CC[C@H](C)[C@H](NC(=O)[C@@H]1C[C@@H](O)CN1C(=O)[C@@H](NC(=N)N)C(C)C)C(=O)N[C@H]1CCNC(=O)CC[C@@H](C(=O)N[C@@H](Cc2ccc(O)cc2)C(=O)O)NC(=O)[C@H](CCN)NC(=O)[C@H](CCN)NC(=O)[C@H](CCN)NC(=O)[C@@H](CCN)NC(=O)[C@H]([C@@H](C)O)NC(=O)[C@H](CCN)NC(=O)[C@H](CCCNC(=N)N)NC(=O)[C@H](CC(N)=O)NC(=O)[C@H]([C@@H](C)O)NC(=O)[C@H](Cc2ccc(O)cc2)NC1=O [Example 135, Gua-Val-Hyp-Ile-Dab-Tyr-Thr-Asn-Arg-Dab-Thr-^DDab-Dab-Dab-Dab-Glu-Tyr] ({Val(Nα-amidino)}-[Hyp]I[Dab]YTNR[Dab]T[dDab][Dab][Dab][Dab]EY-OH; lactam 3-14) | 0.0625 | 0.125 | 0.125 | <1 | – | – | – | – |
| CC[C@H](C)[C@H](NC(=O)[C@@H]1C[C@@H](O)CN1C(=O)[C@@H](NC(=N)N)C(C)C)C(=O)N[C@H]1CCNC(=O)CC[C@@H](C(=O)N[C@@H](Cc2ccc(O)cc2)C(=O)O)NC(=O)[C@H](CCN)NC(=O)[C@H](CCN)NC(=O)[C@H](C(C)C)NC(=O)[C@@H](CCN)NC(=O)[C@H]([C@@H](C)O)NC(=O)[C@H](CCN)NC(=O)[C@H](CCCNC(=N)N)NC(=O)[C@H](CC(N)=O)NC(=O)[C@H]([C@@H](C)O)NC(=O)[C@H](Cc2ccc(O)cc2)NC1=O [Example 136, Gua-Val-Hyp-Ile-Dab-Tyr-Thr-Asn-Arg-Dab-Thr-^DDab-Val-Dab-Dab-Glu-Tyr] ({Val(Nα-amidino)}-[Hyp]I[Dab]YTNR[Dab]T[dDab]V[Dab][Dab]EY-OH; lactam 3-14) | 0.125 | 0.125 | 0.5 | <1 | – | – | – | – |
| Val-Hyp-Ile-Pen-Tyr-Ser-Asn-Arg-Dab-Thr-^DDab-Lys-Dab-Ser-Cys-Tyr (V[Hyp]I[Pen]YSNR[Dab]T[dDab]K[Dab]SCY; disulfide 4-15) [Example 57] | – | – | – | – | 0.25 | 0.25 | 0.5 | <1 |
